# Source: ChEMBL document CHEMBL3885881, “DrugMatrix”
# Organism: Rattus norvegicus
# Test: DrugMatrix - Regimen: Daily Repeat
# Format: toxicity, organism-based, Sprague-Dawley
# Set-up: regimen Daily Repeat, gender Male, age 6-8 weeks
# Settings: in vivo, po, route oral GAVAGE, vehicle .5 % CMC; for ABSOLUTE BASOPHIL / ABSOLUTE EOSINOPHIL / ABSOLUTE LYMPHOCYTE / ABSOLUTE MONOCYTE / ABSOLUTE SEGMENTED NEUTROPHIL / BASOPHIL / EOSINOPHIL / ERYTHROCYTE COUNT / HEMATOCRIT / HEMOGLOBIN / LEUKOCYTE COUNT / LYMPHOCYTE / MEAN CORPUSCULAR HEMOGLOBIN / MEAN CORPUSCULAR HEMOGLOBIN CONCENTRATION / MEAN CORPUSCULAR VOLUME / MONOCYTE / NEUTROPHIL / NUCLEATED RED BLOOD CELLS / PLATELET COUNT: tissue Blood; for ALANINE AMINOTRANSFERASE / ALBUMIN / ALKALINE PHOSPHATASE / ASPARTATE AMINOTRANSFERASE / BLOOD UREA NITROGEN / CARBON DIOXIDE / CHLORIDE / CHOLESTEROL / CREATINE PHOSPHOKINASE / CREATININE / GLUCOSE / LACTATE DEHYDROGENASE / LIPASE / PHOSPHORUS / POTASSIUM / SODIUM / TOTAL BILIRUBIN / TOTAL PROTEIN / URIC ACID: tissue Plasma
# [1] = 0 mg/kg, 72 h, dose level Control, time 3 day
# [2] = 0 mg/kg, 120 h, dose level Control, time 5 day
# [3] = 15 mg/kg, 72 h, dose level Low, time 3 day
compound,measurement,setting,value
CN1C(=O)CN=C(c2ccccc2)c2cc(Cl)ccc21 [DIAZEPAM],ABSOLUTE BASOPHIL,[1],0 CELLS/uL
same,ABSOLUTE EOSINOPHIL,[1],0 CELLS/uL
same,ABSOLUTE LYMPHOCYTE,[1],12269.67 CELLS/uL
same,ABSOLUTE MONOCYTE,[1],160.33 CELLS/uL
same,ABSOLUTE SEGMENTED NEUTROPHIL,[1],970 CELLS/uL
same,BASOPHIL,[1],0%
same,EOSINOPHIL,[1],0%
same,ERYTHROCYTE COUNT,[1],5.76 x10E6/uL
same,HEMATOCRIT,[1],36.57%
same,HEMOGLOBIN,[1],14.22 G/DL
same,LEUKOCYTE COUNT,[1],13.4 x10E3/uL
same,LYMPHOCYTE,[1],91.67%
same,MEAN CORPUSCULAR HEMOGLOBIN,[1],24.67 pg
same,MEAN CORPUSCULAR HEMOGLOBIN CONCENTRATION,[1],38.85 G/DL
same,MEAN CORPUSCULAR VOLUME,[1],63.52 fL
same,MONOCYTE,[1],1.17%
same,NEUTROPHIL,[1],7.17%
same,NUCLEATED RED BLOOD CELLS,[1],0.33 /100WBC
same,PLATELET COUNT,[1],1250.83 x10E3/uL
same,ALANINE AMINOTRANSFERASE,[1],49.17 u/L
same,ALBUMIN,[1],4.33 G/DL
same,ALKALINE PHOSPHATASE,[1],378.5 u/L
same,ASPARTATE AMINOTRANSFERASE,[1],82.17 u/L
same,BLOOD UREA NITROGEN,[1],15 mg/dL
same,CARBON DIOXIDE,[1],34.33 mmol/L
same,CHLORIDE,[1],99.17 MEQ/L
same,CHOLESTEROL,[1],71.17 mg/dL
same,CREATINE PHOSPHOKINASE,[1],258.67 u/L
same,CREATININE,[1],0.18 mg/dL
same,GLUCOSE,[1],142.67 mg/dL
same,LACTATE DEHYDROGENASE,[1],154.33 u/L
same,LIPASE,[1],9 u/L
same,PHOSPHORUS,[1],11.67 mg/dL
same,POTASSIUM,[1],7.13 MEQ/L
same,SODIUM,[1],142.22 MEQ/L
same,TOTAL BILIRUBIN,[1],0.18 mg/dL
same,TOTAL PROTEIN,[1],5.77 G/DL
same,URIC ACID,[1],1.55 mg/dL
same,ABSOLUTE BASOPHIL,[2],0 CELLS/uL
same,ABSOLUTE EOSINOPHIL,[2],23.33 CELLS/uL
same,ABSOLUTE LYMPHOCYTE,[2],14943.67 CELLS/uL
same,ABSOLUTE MONOCYTE,[2],32 CELLS/uL
same,ABSOLUTE SEGMENTED NEUTROPHIL,[2],1084.33 CELLS/uL
same,BASOPHIL,[2],0%
same,EOSINOPHIL,[2],0.17%
same,ERYTHROCYTE COUNT,[2],5.71 x10E6/uL
same,HEMATOCRIT,[2],35.28%
same,HEMOGLOBIN,[2],14.27 G/DL
same,LEUKOCYTE COUNT,[2],16.08 x10E3/uL
same,LYMPHOCYTE,[2],93%
same,MEAN CORPUSCULAR HEMOGLOBIN,[2],25.02 pg
same,MEAN CORPUSCULAR HEMOGLOBIN CONCENTRATION,[2],40.43 G/DL
same,MEAN CORPUSCULAR VOLUME,[2],61.82 fL
same,MONOCYTE,[2],0.17%
same,NEUTROPHIL,[2],6.67%
same,NUCLEATED RED BLOOD CELLS,[2],0.33 /100WBC
same,PLATELET COUNT,[2],1274 x10E3/uL
same,ALANINE AMINOTRANSFERASE,[2],54.17 u/L
same,ALBUMIN,[2],4.22 G/DL
same,ALKALINE PHOSPHATASE,[2],373.17 u/L
same,ASPARTATE AMINOTRANSFERASE,[2],81.83 u/L
same,BLOOD UREA NITROGEN,[2],16.67 mg/dL
same,CARBON DIOXIDE,[2],30.33 mmol/L
same,CHLORIDE,[2],99 MEQ/L
same,CHOLESTEROL,[2],71 mg/dL
same,CREATINE PHOSPHOKINASE,[2],273.5 u/L
same,CREATININE,[2],0.22 mg/dL
same,GLUCOSE,[2],141.83 mg/dL
same,LACTATE DEHYDROGENASE,[2],153.67 u/L
same,LIPASE,[2],10.33 u/L
same,PHOSPHORUS,[2],11.38 mg/dL
same,POTASSIUM,[2],7.08 MEQ/L
same,SODIUM,[2],142.75 MEQ/L
same,TOTAL BILIRUBIN,[2],0.18 mg/dL
same,TOTAL PROTEIN,[2],6.1 G/DL
same,URIC ACID,[2],1.67 mg/dL
same,ABSOLUTE BASOPHIL,[3],0 CELLS/uL
same,ABSOLUTE EOSINOPHIL,[3],0 CELLS/uL
same,ABSOLUTE LYMPHOCYTE,[3],12631.33 CELLS/uL
same,ABSOLUTE MONOCYTE,[3],43.67 CELLS/uL
same,ABSOLUTE SEGMENTED NEUTROPHIL,[3],1191.67 CELLS/uL
same,BASOPHIL,[3],0%
same,EOSINOPHIL,[3],0%
same,ERYTHROCYTE COUNT,[3],5.07 x10E6/uL
same,HEMATOCRIT,[3],32.77%
same,HEMOGLOBIN,[3],13.23 G/DL
same,LEUKOCYTE COUNT,[3],13.87 x10E3/uL
same,LYMPHOCYTE,[3],91%
same,MEAN CORPUSCULAR HEMOGLOBIN,[3],26.23 pg
same,MEAN CORPUSCULAR HEMOGLOBIN CONCENTRATION,[3],40.4 G/DL
same,MEAN CORPUSCULAR VOLUME,[3],64.77 fL
same,MONOCYTE,[3],0.33%
same,NEUTROPHIL,[3],8.67%
same,NUCLEATED RED BLOOD CELLS,[3],0 /100WBC
same,PLATELET COUNT,[3],1275.67 x10E3/uL
same,ALANINE AMINOTRANSFERASE,[3],54 u/L
same,ALBUMIN,[3],4.07 G/DL
same,ALKALINE PHOSPHATASE,[3],332.67 u/L
same,ASPARTATE AMINOTRANSFERASE,[3],79.33 u/L
same,BLOOD UREA NITROGEN,[3],16.67 mg/dL
same,CARBON DIOXIDE,[3],27 mmol/L
same,CHLORIDE,[3],101.67 MEQ/L
same,CHOLESTEROL,[3],72.67 mg/dL
same,CREATINE PHOSPHOKINASE,[3],227.67 u/L
same,CREATININE,[3],0.25 mg/dL
same,GLUCOSE,[3],180 mg/dL
same,LACTATE DEHYDROGENASE,[3],173.33 u/L
same,LIPASE,[3],9 u/L
same,PHOSPHORUS,[3],13.13 mg/dL
same,POTASSIUM,[3],7.43 MEQ/L
same,SODIUM,[3],143.37 MEQ/L
same,TOTAL BILIRUBIN,[3],0.2 mg/dL
same,TOTAL PROTEIN,[3],5.57 G/DL
same,URIC ACID,[3],1.97 mg/dL
